Legend:
[1] = molecular target: hERG (Homo sapiens (Human), UniProt Q12809); assay: hERG radioligand binding assay; conditions: for inhibition at 1 h, 10000 nM: human, hERG membrane stocks (membrane preparation), probe 3H radio ligand (not named), max dose 10,000 nM, read-out: % Inh at Max dose
Experimental: Procedure: Compounds were prepared and diluted with DMSO to make 0.2 mM and 0.02 mM solution. Reference compound was diluted with DMSO to make 8-point 4-fold serial dilution, starting at 0.2 mM. One μl of compounds/high control/low control was transferred to the assay plate according to the plate map. Next, and by following the plate map, 100 μl of membrane stocks was dispensed into the plate followed by adding 100 μl of radio ligand. Plates were then sealed and were incubated at RT for 1 hours. In the meantime, the Unifilter-96 GF/C filter plates were soaked with 50 μL of 0.5% BSA per well for at least 0.5 hour at room temperature. When binding assays were completed, the reaction mixture was filtered through GF/C plates using Perkin Elmer Filtermate Harvester, and then each plate was washed for 4 times with cold wash buffer. Next, the filter plates were dried for 1 hr at 50 degrees and the bottom of the filter plate wells were sealed using Perkin Elmer Unifilter-96 backing seal tape. Next, 50 μl of Perkin Elmer Microscint 20 cocktail was added. The top of the filter plate was sealed with Perkin Elmer TopSeal-A sealing film. Using Perkin Elmer MicroBeta2 Reader count 3H trapped on filter. Finally, the data was analyzed with GraphPad Prism 5. The “Inhibition [% Control]” was calculated using the equation: % Inh=(1-Background subtracted Assay value/Background subtracted HC value)*100.

[2] = system: MV-411 cells; assay: Anti-proliferative activity against MV-411 leukemia cells (CellTiterGlo viability, 72 h); assay type: cell-based; conditions: Homo sapiens, MV4-11, 72 h, MV-411 human acute monocytic leukemia cells, a second value in parentheses is a further determination
Experimental: Procedure: MV-411 cells were seeded into 384 well plates at 2000 cells/well density in 50 μL total volume, according to plate map and were allowed to naturally sediment by waiting about 30 min on a Clean Bench. Next, plated cells were centrifuged for 1 min at 1000 rpm and the excess cells were transferred into the flasks for further culture. Cells in the assay plates were incubated (at least 4 hrs.) at 37° C., 5% CO2 followed by adding the compounds as the plate map indicated. The tests were performed in duplicates with treatment of compounds at 10 pts 3-fold titration in 384 well plates. Taxol was used as positive control while DMSO as negative control. To rule out edge effect, the wells on the edge were not seeded and therefore one 384 well plate holds 13 compounds. Cells viability was measured 72h after incubation with compounds using CellTiterGlo (promega) viability assay according to manufacturer's instruction to check the ATP production in each well.
Experiments on anti-proliferative activity against leukemia cells were conducted with some of the compounds of the invention.

[3] = Solubility remark in Table 4; assay type: physicochemical; conditions: remark beside the GI50 value
[4] = molecular target: MLL1-WDR5 protein-protein interaction (Homo sapiens (Human), UniProt P61964); assay: WDR5 TR-FRET assay (MLL1-WDR5 PPI inhibition); assay type: binding; conditions: 5 nM WDR5 protein, 10 nM peptide, read-out: IC50 (nM), MLL1-WDR5 PPI inhibitory activity
Experimental: WDR5 TR-FRET Assay Procedure: Stock compounds were transferred to the assay plate by Echo Liquid Handler. […] Stock compounds were incubated with WDR5 protein for 30 min at room temperature. Plates were covered, protected from light and incubated for 60 min at room temperature, after adding the peptide and Tb-Ab. EnVision Multimode Plate Reader (PerkinElmer) was used for the TR-FRET assay with excitation wavelength at 340 nm and emission wavelength at 495 and 520 nm. The ratio of the 520/495 wavelengths were used to assess the degree of the FRET signal. IC50 was calculated by fitting the inhibition data using XLfit software to sigmoidal dose-response model.

Sequence of hERG (Q12809 whole entry): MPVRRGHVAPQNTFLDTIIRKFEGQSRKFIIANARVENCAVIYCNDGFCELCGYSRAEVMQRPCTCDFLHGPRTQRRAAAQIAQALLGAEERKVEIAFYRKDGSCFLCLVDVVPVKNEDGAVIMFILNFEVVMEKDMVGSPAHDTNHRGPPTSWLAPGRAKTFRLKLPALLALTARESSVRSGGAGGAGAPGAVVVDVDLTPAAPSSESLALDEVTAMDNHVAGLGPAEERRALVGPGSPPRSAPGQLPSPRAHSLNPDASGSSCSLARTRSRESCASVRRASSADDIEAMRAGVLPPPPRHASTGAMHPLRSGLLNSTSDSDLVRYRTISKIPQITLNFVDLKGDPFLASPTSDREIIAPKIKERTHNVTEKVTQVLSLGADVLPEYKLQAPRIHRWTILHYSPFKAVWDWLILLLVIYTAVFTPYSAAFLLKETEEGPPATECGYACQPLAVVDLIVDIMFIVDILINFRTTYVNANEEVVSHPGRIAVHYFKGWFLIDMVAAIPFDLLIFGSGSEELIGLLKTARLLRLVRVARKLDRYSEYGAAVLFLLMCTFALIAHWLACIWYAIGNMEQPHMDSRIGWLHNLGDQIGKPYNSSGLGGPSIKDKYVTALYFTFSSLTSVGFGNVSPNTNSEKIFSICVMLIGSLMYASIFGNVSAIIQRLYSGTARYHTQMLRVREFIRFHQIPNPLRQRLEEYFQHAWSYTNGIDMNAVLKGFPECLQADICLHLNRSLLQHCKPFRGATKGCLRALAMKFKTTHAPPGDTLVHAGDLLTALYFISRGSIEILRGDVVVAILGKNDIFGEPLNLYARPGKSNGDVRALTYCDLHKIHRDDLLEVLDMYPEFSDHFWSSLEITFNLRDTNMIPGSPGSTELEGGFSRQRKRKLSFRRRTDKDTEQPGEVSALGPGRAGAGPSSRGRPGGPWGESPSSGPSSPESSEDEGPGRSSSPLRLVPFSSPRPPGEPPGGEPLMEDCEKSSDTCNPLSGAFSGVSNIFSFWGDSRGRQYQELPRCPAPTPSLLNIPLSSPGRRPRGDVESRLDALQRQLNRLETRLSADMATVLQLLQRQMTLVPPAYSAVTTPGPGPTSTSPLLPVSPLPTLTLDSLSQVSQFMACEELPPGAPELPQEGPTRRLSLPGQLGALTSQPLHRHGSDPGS

CN1CCN(c2ccc(-n3cc(C(=O)NCCCN4CCOCC4)nn3)cc2NC(=O)c2cnc(Cl)cc2C(F)(F)F)CC1 [Compound 3]
IC50 [1]: > 10 µM | inhibition at 1 h, 10000 nM [1]: 3.31% | GI50 [2]: 0.298 µM

Cc1c(Cl)ncc(C(=O)Nc2cc(-n3cc(C(=O)NCCCN4CCOCC4)nn3)c(F)cc2N2CCN(C)[C@H](C)C2)c1Cl [Compound 59]
solubility (remark) [3]: (poor solubility) | GI50 [2]: > 204 µM

CN1CCN(c2cc(F)c(-n3cc(C(=O)NCCCN4CCOCC4)nn3)cc2NC(=O)c2cnc(Cl)cc2C(F)(F)F)CC1 [Compound 7]
IC50 [1]: > 10 µM | inhibition at 1 h, 10000 nM [1]: 11.8% | GI50 [2]: 0.4 µM

C[C@H]1CN(c2ccc(-n3cc(C(=O)NCCCN4CCOCC4)nn3)cc2NC(=O)c2cnc(Cl)cc2C(F)(F)F)CCN1C [Compound 9]
IC50 [1]: > 10 µM | inhibition at 1 h, 10000 nM [1]: 6.39% | GI50 [2]: 0.241 µM

CN1CCN(c2ccc(-n3cc(C(=O)NCCCN4CCOCC4)nn3)cc2NC(=O)c2cnc(Cl)cc2C(F)(F)F)CC1 [Example 3, 6-chloro-N-(2-(4-methylpiperazin-1-yl)-5-(4-((3-morpholinopropyl)carbamoyl)-1H-1,2,3-triazol-1-yl)phenyl)-4-(trifluoromethyl)nicotinamide]
IC50 [4]: > 10000 nM

CSc1ccc(C(=O)Nc2cc(-n3cc(C(=O)NCCCN4CCOCC4)nn3)ccc2N2CCN(C)CC2)c(C(F)(F)F)n1 [Example 43, N-(2-(4-methylpiperazin-1-yl)-5-(4-((3-morpholinopropyl)carbamoyl)-1H-1,2,3-triazol-1-yl)phenyl)-6-(methylthio)-2-(trifluoromethyl)nicotinamide]
IC50 [4]: > 10000 nM

CN(CCOc1ccc(NS(C)(=O)=O)cc1)CCc1ccc(NS(C)(=O)=O)cc1 [Dofetilide]
inhibition at 1 h, 10000 nM [1]: 99.9%

C[C@@H]1CN(c2cc(F)c(-n3cc(C(=O)NCCCN4CCOCC4)nn3)cc2NC(=O)c2c[nH]c(=O)cc2C(F)(F)F)C[C@H](C)N1C [Example 6, N-(4-fluoro-5-(4-((3-morpholinopropyl)carbamoyl)-1H-1,2,3-triazol-1-yl)-2-((3S,5R)-3,4,5-trimethylpiperazin-1-yl)phenyl)-6-oxo-4-(trifluoromethyl)-1,6-dihydropyridine-3-carboxamide]
IC50 [4]: 7.23 nM

CSc1ncc(C(=O)Nc2cc(-n3cc(C(=O)NCCCN4CCOCC4)nn3)ccc2N2CCN(C)CC2)c(C(F)(F)F)n1 [Example 27, N-(2-(4-methylpiperazin-1-yl)-5-(4-((3-morpholinopropyl)carbamoyl)-1H-1,2,3-triazol-1-yl)phenyl)-2-(methylthio)-4-(trifluoromethyl)pyrimidine-5-carboxamide]
IC50 [4]: > 10000 nM

COc1ccc(C(=O)Nc2cc(-n3cc(C(=O)NCCCN4CCOCC4)nn3)ccc2N2CCN(C)CC2)c(C(F)(F)F)n1 [Example 38, 6-methoxy-N-(2-(4-methylpiperazin-1-yl)-5-(4-((3-morpholinopropyl)carbamoyl)-1H-1,2,3-triazol-1-yl)phenyl)-2-(trifluoromethyl)nicotinamide]
IC50 [4]: > 10000 nM

CN1CCN(c2ccc(-n3cc(C(=O)NCCCN4CCOCC4)nn3)cc2NC(=O)c2cnc(C(F)(F)F)cc2Cl)CC1 [Example 20, 4-chloro-N-(2-(4-methylpiperazin-1-yl)-5-(4-((3-morpholinopropyl)carbamoyl)-1H-1,2,3-triazol-1-yl)phenyl)-6-(trifluoromethyl)nicotinamide]
IC50 [4]: > 10000 nM

COc1cnc(C(=O)Nc2cc(-n3cc(C(=O)NCCCN4CCOCC4)nn3)ccc2N2CCN(C)CC2)c(OC)n1 [Example 36, 3,5-dimethoxy-N-(2-(4-methylpiperazin-1-yl)-5-(4-((3-morpholinopropyl)carbamoyl)-1H-1,2,3-triazol-1-yl)phenyl)pyrazine-2-carboxamide]
IC50 [4]: > 10000 nM

CN1CCN(c2cc(F)c(-n3cc(C(=O)NCCCN4CCOCC4)nn3)cc2NC(=O)c2c[nH]c(=O)cc2C(F)(F)F)CC1 [Example 8, N-(4-fluoro-2-(4-methylpiperazin-1-yl)-5-(4-((3-morpholinopropyl)carbamoyl)-1H-1,2,3-triazol-1-yl)phenyl)-6-oxo-4-(trifluoromethyl)-1,6-dihydropyridine-3-carboxamide]
IC50 [4]: 21.2 nM

CCN(CC)C(=O)c1cn(-c2cc(NC(=O)c3cnc(Cl)cc3Cl)c(N3C[C@@H](C)N(C)[C@@H](C)C3)cc2F)nn1 [Example 56, 4,6-dichloro-N-[5-[4-(diethylcarbamoyl)triazol-1-yl]-4-fluoro-2-[(3R,5S)-3,4,5-trimethylpiperazin-1-yl]phenyl]pyridine-3-carboxamide]
IC50 [4]: 1160 nM

CN1CCN(c2ccc(-n3cc(C(=O)NCCCN4CCOCC4)nn3)cc2NC(=O)c2cnc(S(C)(=O)=O)cc2C(F)(F)F)CC1 [Example 15, N-[2-(4-methylpiperazin-1-yl)-5-[4-(3-morpholinopropylcarbamoyl)triazol-1-yl]phenyl]-6-methylsulfonyl-4-(trifluoromethyl)pyridine-3-carboxamide]
IC50 [4]: > 10000 nM

From patent US20230286948A1 (HUYABIO International, LLC, priority 2022, published 2023)
